Measured values as given in patent EP4603105A1, “PHARMACEUTICAL COMPOSITION CONTAINING CYCLIC COMPOUND HAVING SELECTIVE KRAS INHIBITORY EFFECT AGAINST HRAS AND NRAS” (CHUGAI SEIYAKU KABUSHIKI KAISHA, priority 2022, dated 2024).
*1 amine or outer side, *2 acyl side, *3 side chain or, on linkers, in order; H or OH if unused. Where a SMILES comes first, the peptide text is derived from it. Bridges are numbered along the chain shown (N, C = ends). [ ]: non-standard residue; d: D form. The star is where a group is joined. hPhe(3-Cl-4-CF3) = N[C@@H](CCc1ccc(C(F)(F)F)c(Cl)c1)C(=O)O; NPrPhe(4-CF3) = CCCN[C@@H](Cc1ccc(C(F)(F)F)cc1)C(=O)O; X32 = Cc1ccc(C[C@@H](C(=O)[*:2])N(CC2CCCC2)[*:1])cc1; NMeGly(cPent) = CN[C@H](C(=O)O)C1CCCC1; Pro(4,4-F2) = O=C(O)[C@@H]1CC(F)(F)CN1; NMeD = CN[C@@H](CC(=O)O)C(=O)O; NMeL = CN[C@@H](CC(C)C)C(=O)O; Morpholide = C1CN(*)CCO1; Ac5c = NC1(C(=O)O)CCCC1; Aze = O=C(O)[C@@H]1CCN1; Ac4c = NC1(C(=O)O)CCC1; Sar = CNCC(=O)O

How the values were obtained:
[1] = system: human lung cancer strain NCI-H441; format: cell-based
Outline: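 Proliferation was scored by […] measured after the reagent was added to cultures kept at 37°C in 5% carbon dioxide.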

[2] = biological target: HRAS wild-type protein (Homo sapiens, UniProt P01112); experiment: Binding to HRAS by surface plasmon resonance (SPR), KD and KD ratio to KRAS
Outline: (§1)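 Single-cycle kinetics on GDP-loaded biotin-Avi RAS captured to ~100–300 RU; 75 s ascending injections, 100 µL/min, 30°C. HBS pH 7.4 + 10 mM MgCl2/10 µM GDP/4% DMSO. 1:1 fit, KD.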

[3] = biological target: GDP-bound NRAS wild-type protein (Homo sapiens, UniProt P01111); experiment: Binding to NRAS by surface plasmon resonance (SPR), KD and KD ratio to KRAS
Outline: as §1

[4] = ratio of the KD value with respect to HRAS wild-type protein to the KD value with respect to KRAS
[5] = ratio of the KD value with respect to GDP-bound NRAS wild-type protein to the KD value with respect to KRAS
[6] = ratio of KD for HRAS wild-type protein to KD for KRAS
[7] = ratio of KD for GDP-bound NRAS wild-type protein to KD for KRAS

Chain of HRAS wild-type protein (P01112 whole entry): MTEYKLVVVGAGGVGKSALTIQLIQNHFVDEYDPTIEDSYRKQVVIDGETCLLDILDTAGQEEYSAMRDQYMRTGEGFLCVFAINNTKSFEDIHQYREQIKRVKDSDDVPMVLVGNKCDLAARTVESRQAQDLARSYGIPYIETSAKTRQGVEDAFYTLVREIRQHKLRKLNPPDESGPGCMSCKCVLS
Chain of GDP-bound NRAS wild-type protein (P01111 whole entry): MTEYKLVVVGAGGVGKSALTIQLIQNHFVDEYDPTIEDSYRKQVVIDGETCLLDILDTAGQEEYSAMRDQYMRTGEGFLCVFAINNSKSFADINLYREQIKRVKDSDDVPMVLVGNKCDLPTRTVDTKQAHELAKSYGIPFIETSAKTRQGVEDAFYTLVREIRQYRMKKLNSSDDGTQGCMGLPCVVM

Row | Structure (SMILES) | IC50 [1] | HRAS /KRAS [2, 4] | NRAS /KRAS [3, 5] | HRAS /KRAS [2, 6] | NRAS /KRAS [3, 7] | HRAS /KRAS ([2]; ratio of KD value for HRAS wild-type protein to KD value for KRAS (SPR)) | NRAS /KRAS ([3]; ratio of KD value for GDP-bound NRAS wild-type protein to KD value for KRAS (SPR))
1 | CC[C@H](C)[C@@H]1NC(=O)[C@H](CC)N(C)C(=O)C[C@@H](C(=O)N(C)C)N(CC)C(=O)[C@H](C2CCCC2)N(C)C(=O)C2(CCC2)NC(=O)[C@@H]2C[C@@H](N3CCC(F)(F)CC3)CN2C(=O)[C@H](CCc2cc(F)c(C(F)(F)F)c(F)c2)NC(=O)CN(C)C(=O)[C@H](Cc2ccc(C(F)(F)F)cc2)N2CCCC[C@@H](C2=O)N(C)C(=O)CN(C)C1=O [PP0733] | 0.22 µM | B (a compound having 3 or more and less than 10 is denoted as B) | B (a compound having 3 or more and less than 10 is denoted as B) |  |  |  | 
2 | CCO[C@@H]1C[C@H]2C(=O)NC3(CCC3)C(=O)N(C)[C@@H](C3CCCC3)C(=O)N(C)[C@H](C(=O)N(C)C)CC(=O)N(C)[C@@H](Cc3cccc(Cl)c3)C(=O)N[C@@H]([C@@H](C)CC)C(=O)N(C)CC(=O)N(C)[C@H]3CCCCCN(C3=O)[C@@H](Cc3ccc(C(F)(F)F)cc3)C(=O)N(C)CC(=O)N[C@@H](CCc3cc(F)c(C(F)(F)F)c(F)c3)C(=O)N2C1 [PP0939] | 0.114 µM |  |  | B (a compound having 3 or more and less than 10 is denoted as B) | B (a compound having 3 or more and less than 10 is denoted as B) |  | 
3 | CC[C@H](C)[C@@H]1NC(=O)[C@@H]2CCCCCN2C(=O)C[C@@H](C(=O)N2CCOCC2)N(C)C(=O)[C@H](C2CCCC2)N(C)C(=O)C2(CCCC2)NC(=O)[C@@H]2CCCN2C(=O)[C@H](CCc2cc(F)c(C(F)(F)F)c(F)c2)NC(=O)CN(C)C(=O)[C@H](Cc2ccc(C(F)(F)F)cc2)N2CCCCC[C@@H](C2=O)N(C)C(=O)CN(C)C1=O [PP0521] | 0.586 µM | B (a compound having 3 or more and less than 10 is denoted as B) | B (a compound having 3 or more and less than 10 is denoted as B) |  |  |  | 
4 | CCO[C@@H]1C[C@H]2C(=O)NC3(CCC3)C(=O)N(C)[C@@H](C3CCCC3)C(=O)N(C)[C@H](C(=O)N3CCOCC3)CC(=O)N(C)[C@@H](CC(C)C)C(=O)N[C@@H]([C@@H](C)CC)C(=O)N(C)CC(=O)N(C)[C@H]3CCCCCN(C3=O)[C@@H](Cc3ccc4ccsc4c3)C(=O)N(C)CC(=O)N[C@@H](CCc3cc(F)c(C(F)(F)F)c(F)c3)C(=O)N2C1 [PP0921] | 0.139 µM |  |  | B (a compound having 3 or more and less than 10 is denoted as B) | B (a compound having 3 or more and less than 10 is denoted as B) |  | 
5 | CCO[C@@H]1C[C@H]2C(=O)NC3(CCC3)C(=O)N(C)[C@@H](C3CCCC3)C(=O)N(C)[C@H](C(=O)N(C)C)CC(=O)N(C)[C@@H](CC)C(=O)N[C@@H]([C@@H](C)CC)C(=O)N(C)CC(=O)N(C)[C@H]3CCCCN(C3=O)[C@@H](Cc3ccc(C(F)(F)F)cc3)C(=O)N(C)CC(=O)N[C@@H](CCc3ccc(Cl)c(Cl)c3)C(=O)N2C1 [PP0987] | 0.0068 µM |  |  | C (A compound having a KD ratio of 0.1 or more and less than 3 is denoted as C) | C (A compound having a KD ratio of 0.1 or more and less than 3 is denoted as C) |  | 
6 | CCO[C@@H]1C[C@H]2C(=O)NC3(CCC3)C(=O)N(C)[C@@H](C3CCCC3)C(=O)N(C)[C@H](C(=O)N3CCOCC3)CC(=O)N(C)[C@@H](CC)C(=O)N[C@@H]([C@@H](C)CC)C(=O)N3CC[C@H]3C(=O)N(C)[C@H]3C[C@@H](C)CCN(C3=O)[C@@H](Cc3ccc(C(F)(F)F)cc3)C(=O)N(C)CC(=O)N[C@@H](CCc3cc(F)c(C(F)(F)F)c(F)c3)C(=O)N2C1 [PP1028] | 0.0173 µM |  |  | B (a compound having 3 or more and less than 10 is denoted as B) | B (a compound having 3 or more and less than 10 is denoted as B) |  | 
7 | CC[C@H](C)[C@@H]1NC(=O)[C@H](CC(C)C)N(C)C(=O)C[C@@H](C(=O)N2CCOCC2)N(C)C(=O)[C@H](C2CCCC2)N(C)C(=O)C2(CCCC2)NC(=O)[C@@H]2CCCN2C(=O)[C@H](CCc2ccc(C(F)(F)F)c(Cl)c2)NC(=O)CN(C)C(=O)[C@H](Cc2ccc(C)cc2)N(CC2CCCC2)C(=O)CN(C)C(=O)CN(C)C1=O [PP0096] ([NMeL]I[Sar][Sar][X32][Sar][hPhe(3-Cl-4-CF3)]P[Ac5c][NMeGly(cPent)][NMeD]-Morpholide; lactam N-11) | 0.0689 µM |  |  | C (A compound having a KD ratio of 0.1 or more and less than 3 is denoted as C) | C (A compound having a KD ratio of 0.1 or more and less than 3 is denoted as C) |  | 
8 | CCCN1C(=O)[C@@H]2CCN2C(=O)CN(C)C(=O)[C@H]([C@@H](C)CC)NC(=O)[C@H](CC(C)C)N(C)C(=O)C[C@@H](C(=O)N(C)C)NC(=O)[C@H](C2CCCC2)N(C)C(=O)C2(CCC2)NC(=O)[C@@H]2CC(F)(F)CN2C(=O)[C@H](CCc2ccc(C(F)(F)F)c(Cl)c2)NC(=O)CN(C)C(=O)[C@@H]1Cc1ccc(C(F)(F)F)cc1 [PP0388] ([NMeL]I[Sar][Aze][NPrPhe(4-CF3)][Sar][hPhe(3-Cl-4-CF3)][Pro(4,4-F2)][Ac4c][NMeGly(cPent)]D-NMe2; lactam N-11) | 0.0116 µM | B (a compound having 3 or more and less than 10 is denoted as B) | C (A compound having a KD ratio of 0.1 or more and less than 3 is denoted as C) |  |  |  | 
9 | CC[C@H](C)[C@@H]1NC(=O)[C@H](CC(C)C)N(C)C(=O)C[C@@H](C(=O)N2CCOCC2)N(C)C(=O)[C@H](C2CCCC2)N(C)C(=O)C2(CC2)NC(=O)[C@@H]2CCCN2C(=O)[C@H](CCc2cc(F)c(C(F)(F)F)c(F)c2)NC(=O)CN(C)C(=O)[C@H](Cc2ccc(C(F)(F)F)cc2)N2CCCC[C@@H](C2=O)N(C)C(=O)CN(C)C1=O [PP0559] | 0.0231 µM | B (a compound having 3 or more and less than 10 is denoted as B) | B (a compound having 3 or more and less than 10 is denoted as B) |  |  |  | 
10 | CCC[C@H]1C(=O)N[C@@H]([C@@H](C)CC)C(=O)N(C)CC(=O)N(C)[C@H]2C/C=C\CCN(C2=O)[C@@H](Cc2ccc(C(F)(F)F)cc2)C(=O)N(C)CC(=O)N[C@@H](CCc2cc(Cl)c(C(F)(F)F)c(Cl)c2)C(=O)N2C[C@H](OCC)C[C@H]2C(=O)NC2(CC(C)(C)C2)C(=O)N(C)[C@@H](C2CCCC2)C(=O)N(C)[C@H](C(=O)N(C)C)CC(=O)N1C [PP2859] | 0.0068 µM |  |  | A (a compound having 10 or more and less than 20 is denoted as A) | A (a compound having 10 or more and less than 20 is denoted as A) |  | 

Continued, in another order:

Row | IC50 [1] | Structure (SMILES) | HRAS /KRAS [2, 4] | NRAS /KRAS [3, 5] | HRAS /KRAS [2, 6] | NRAS /KRAS [3, 7] | HRAS /KRAS ([2]; ratio of KD value for HRAS wild-type protein to KD value for KRAS (SPR)) | NRAS /KRAS ([3]; ratio of KD value for GDP-bound NRAS wild-type protein to KD value for KRAS (SPR))
11 | 0.102 µM | CCC[C@H]1C(=O)N[C@@H]([C@@H](C)CC)C(=O)N(C2CC2)CC(=O)N(C)[C@H]2C/C=C\CCN(C2=O)[C@@H](Cc2ccc(C(F)(F)F)cc2)C(=O)N(C)CC(=O)N[C@@H](CCc2ccc(Cl)c(Cl)c2)C(=O)N2C[C@H](OCC)C[C@H]2C(=O)NC2(CC(C)(C)C2)C(=O)N(C)[C@@H](CC2CCC2)C(=O)N(C)[C@H](C(=O)N(C)C)CC(=O)N1C [PP2819] |  |  | A (a compound having 10 or more and less than 20 is denoted as A) | A (a compound having 10 or more and less than 20 is denoted as A) |  | 
12 | 0.0169 µM | CC[C@H](C)[C@@H]1NC(=O)[C@H](CC2CC2)N(C)C(=O)C[C@@H](C(=O)N2CCCC2)N(C)C(=O)[C@H](C2CCCC2)N(C)C(=O)C2(CCC2)NC(=O)[C@@H]2CC(F)(F)CN2C(=O)[C@H](CCc2cc(F)c(C(F)(F)F)c(F)c2)NC(=O)CN(C)C(=O)[C@H](Cc2ccc(C(F)(F)F)cc2)N2CC/C=C\C[C@@H](C2=O)N(C)C(=O)CN(C)C1=O [PP1512] |  |  |  |  | A (a compound having 10 or more and less than 20 is denoted as A) | AA (a compound having 20 or more is denoted as AA)
13 | 0.0587 µM | CCO[C@@H]1C[C@H]2C(=O)NC3(CCC3)C(=O)N(C)[C@@H](C3CCCC3)C(=O)N(C)[C@H](C(=O)N(C)C)CC(=O)N(C)[C@@H](CC)C(=O)N[C@@H]([C@@H](C)CC)C(=O)N(CC)CC(=O)N(C)[C@H]3C/C=C\CCN(C3=O)[C@@H](Cc3ccc(C(F)(F)F)cc3)C(=O)N(C)CC(=O)N[C@@H](CCc3cc(F)c(C(F)(F)F)c(F)c3)C(=O)N2C1 [PP1052] |  |  | A (a compound having 10 or more and less than 20 is denoted as A) | A (a compound having 10 or more and less than 20 is denoted as A) |  | 
14 | 0.0088 µM | CCO[C@@H]1C[C@H]2C(=O)NC3(CC(C)(C)C3)C(=O)N(C)[C@@H](C3CCCC3)C(=O)N(C)[C@H](C(=O)N(C)CC)CC(=O)N(C)[C@@H](C(C)C)C(=O)N[C@@H]([C@@H](C)CC)C(=O)N(C)CC(=O)N(C)[C@H]3C/C=C\CCN(C3=O)[C@@H](Cc3ccc(C(F)(F)F)cc3)C(=O)N(C)CC(=O)N[C@@H](CCc3cc(F)c(C(F)(F)F)c(F)c3)C(=O)N2C1 [PP2034] | A (a compound having 10 or more and less than 20 is denoted as A) | A (a compound having 10 or more and less than 20 is denoted as A) |  |  |  | 
15 | 0.0022 µM | CCO[C@@H]1C[C@H]2C(=O)NC3(CC(C)(C)C3)C(=O)N(C)[C@@H](C3CCCC3)C(=O)N(C)[C@H](C(=O)N(C)CC)CC(=O)N(C)[C@@H](CC(C)C)C(=O)N[C@@H]([C@@H](C)CC)C(=O)N(C)CC(=O)N(C)[C@H]3C/C=C\CCN(C3=O)[C@@H](Cc3ccc(C(F)F)cc3)C(=O)N(C)CC(=O)N[C@@H](CCc3cc(F)c(C(F)(F)F)c(F)c3)C(=O)N2C1 [PP2046] | A (a compound having 10 or more and less than 20 is denoted as A) | A (a compound having 10 or more and less than 20 is denoted as A) |  |  |  | 
